PMC4472624, “Pharmacokinetics of daptomycin in patients undergoing low-flow continuous venovenous hemodiafiltration” (Critical Care, 2015)
Like-named read-outs stand apart in the source and are kept apart here.

Columns and labels:
[1] = Pharmacokinetics of daptomycin in patients undergoing low-flow CVVHDF; type: in vivo, human; details: 6 mg/kg i.v. every 48 hours, HPLC; for AUC / half-life: 6 mg/kg; for AUC: read-out: area under the concentration-time curve (AUC); for half-life: read-out: elimination half-life (t1/2) (converted)
Method: DAP (6 mg/kg) was administered intravenously every 48 hours to CVVHDF patients in the ICU. Blood and filtrate samples were collected at 0, 1, 1.5, 2, 5, 12, 24, and 48 hours after infusion. All collected samples were analyzed using HPLC according to the method of Tobin et al.. Maximum concentration (Cmax), elimination half-life (t1/2), area AUC, Cmin, volume of distribution (Vd), clearance (CL), fraction unbound, and sieving coefficient (Sc) were evaluated. Patient characteristics and CVVHDF parameters including blood, dialysate, and filtration flow rates were recorded.

[2] = cited from earlier work
Excerpt: In Japan, CVVHDF is preferentially performed with lower flow rates. Investigating effects of flow rate on DAP removal during co ...

[3] = low-flow CVVHDF, blood and filtrate samples, mean of three patients
[4] = human, blood, iv, low-flow CVVHDF, single patient, first listed
[5] = human, blood, iv, low-flow CVVHDF, single patient, second listed
[6] = human, blood, iv, low-flow CVVHDF, single patient, third listed

## CCCCCCCCCC(=O)N[C@@H](Cc1c[nH]c2ccccc12)C(=O)N[C@H](CC(N)=O)C(=O)N[C@@H](CC(=O)O)C(=O)N[C@@H]1C(=O)NCC(=O)N[C@@H](CCCN)C(=O)N[C@@H](CC(=O)O)C(=O)N[C@H](C)C(=O)N[C@@H](CC(=O)O)C(=O)NCC(=O)N[C@H](CO)C(=O)N[C@@H]([C@H](C)CC(=O)O)C(=O)N[C@@H](CC(=O)c2ccccc2N)C(=O)O[C@@H]1C [DAP, daptomycin]
[1]; low-flow CVVHDF, single patient, first listed
  trough serum concentration (Cmin): 2300 ng/mL
[1]; low-flow CVVHDF, single patient, second listed
  trough serum concentration (Cmin): 24700 ng/mL
[1]; low-flow CVVHDF, single patient, third listed
  trough serum concentration (Cmin): 14000 ng/mL
[1]; [3]
  CL of dialyzer: 1.20 ± 0.39 mL/min
  sieving coefficient (Sc): 0.08 ± 0.03
[1]; low-flow CVVHDF, blood and filtrate samples, single patient, first listed
  CL of dialyzer: 1.70 mL/min
[1]; low-flow CVVHDF, blood and filtrate samples, single patient, second listed
  CL of dialyzer: 0.88 mL/min
[1]; low-flow CVVHDF, blood and filtrate samples, single patient, third listed
  CL of dialyzer: 0.96 mL/min
[1]; [4]
  AUC: 471 µg·h/mL
  half-life: 18.6 h
[1]; [5]
  AUC: 967 µg·h/mL
  half-life: 11.5 h
[1]; [6]
  AUC: 1260 µg·h/mL
  half-life: 70.5 h
[1]; human, blood, iv, ICU patients on low-flow CVVHDF, mean of three patients
  fraction unbound: 0.058
[1]; human, blood, iv, ICU patients on low-flow CVVHDF, mean of three patients, read-out: clearance (CL)
  clearance: 9.47 ± 4.56 mL/min
[1]; human, blood, iv, ICU patients on low-flow CVVHDF, mean of three patients, read-out: volume of distribution (Vd)
  Vd: 26 ± 20.9 L
[1]; human, iv, ICU patients on low-flow CVVHDF, blood samples 0-48 hours, mean of three patients, read-out: Maximum concentration (Cmax)
  Cmax: 50100 ± 12700 ng/mL
[2]
  AUC/MIC required to obtain clinical success: 1,061 mg hour/l
